Consider 27 compounds from publication PMC6868012, “Discovery of novel potential selective HDAC8 inhibitors by combine ligand-based, structure-based virtual screening and in-vitro biological evaluation” (Scientific Reports, 2019).

As a reminder, the IC50 is the concentration that inhibits the measured activity by half. What is called pIC50 is the negative decadic logarithm of the IC50, by convention in mol/L.

Read-outs that look alike come from different tables or passages of the source. A value given as a limit tells only on which side of the number the result lay.

The target of experiment [1] is T1, HDAC6 (Homo sapiens, UniProt Q9UBN7).
T1 sequence (Q9UBN7 1-1215): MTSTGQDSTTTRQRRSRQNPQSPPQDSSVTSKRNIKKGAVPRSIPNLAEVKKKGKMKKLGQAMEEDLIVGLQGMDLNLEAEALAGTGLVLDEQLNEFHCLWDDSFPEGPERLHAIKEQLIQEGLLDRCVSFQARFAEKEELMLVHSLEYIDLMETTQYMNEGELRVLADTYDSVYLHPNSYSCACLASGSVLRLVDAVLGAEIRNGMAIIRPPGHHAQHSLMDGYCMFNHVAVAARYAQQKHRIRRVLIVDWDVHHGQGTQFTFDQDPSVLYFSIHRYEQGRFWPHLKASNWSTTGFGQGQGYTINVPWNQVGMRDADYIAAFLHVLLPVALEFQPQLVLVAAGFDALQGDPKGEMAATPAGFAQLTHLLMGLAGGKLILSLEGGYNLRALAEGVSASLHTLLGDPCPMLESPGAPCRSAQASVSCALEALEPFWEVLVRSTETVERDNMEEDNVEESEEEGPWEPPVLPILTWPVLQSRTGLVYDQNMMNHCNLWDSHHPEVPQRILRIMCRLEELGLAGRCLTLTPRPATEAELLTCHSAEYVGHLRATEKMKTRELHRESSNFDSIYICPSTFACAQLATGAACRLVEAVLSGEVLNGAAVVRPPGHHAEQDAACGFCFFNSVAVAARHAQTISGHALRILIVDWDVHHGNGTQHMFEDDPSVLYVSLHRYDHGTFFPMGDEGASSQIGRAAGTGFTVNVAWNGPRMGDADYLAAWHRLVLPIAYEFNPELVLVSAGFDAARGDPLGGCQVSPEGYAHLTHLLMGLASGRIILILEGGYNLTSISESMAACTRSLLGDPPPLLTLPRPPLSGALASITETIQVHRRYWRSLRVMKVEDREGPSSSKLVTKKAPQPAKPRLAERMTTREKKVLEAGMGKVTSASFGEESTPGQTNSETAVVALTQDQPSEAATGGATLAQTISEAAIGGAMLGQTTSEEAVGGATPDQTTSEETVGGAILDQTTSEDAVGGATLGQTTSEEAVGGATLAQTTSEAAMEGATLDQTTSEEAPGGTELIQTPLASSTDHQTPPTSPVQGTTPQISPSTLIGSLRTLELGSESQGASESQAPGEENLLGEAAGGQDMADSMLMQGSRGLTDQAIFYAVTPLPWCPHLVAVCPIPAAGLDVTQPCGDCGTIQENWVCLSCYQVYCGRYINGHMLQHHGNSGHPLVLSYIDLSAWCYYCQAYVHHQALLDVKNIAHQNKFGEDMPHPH
As to the kind of experiment: HDAC6 activity assay (fluorometric, Sigma CS1010, Boc-Lys(Ac)-AMC). It is filed as biochemical. Particulars: read-out: HDAC-6 (IC50 in nM). Here is the method:
(§1) HDAC 6 and 8 activities were measured according to the manufacturer’s protocol from Sigma (Cat# CS1010). […] Trichostatin A was used as a reference inhibitor. The Perkin Elmer multimode reader, model-Enspire 2300 was used for fluorescence plate reader.

Experiment [2] concerns the target T2, HDAC8 (Homo sapiens, UniProt Q9BY41).
T2 sequence (Q9BY41 1-377): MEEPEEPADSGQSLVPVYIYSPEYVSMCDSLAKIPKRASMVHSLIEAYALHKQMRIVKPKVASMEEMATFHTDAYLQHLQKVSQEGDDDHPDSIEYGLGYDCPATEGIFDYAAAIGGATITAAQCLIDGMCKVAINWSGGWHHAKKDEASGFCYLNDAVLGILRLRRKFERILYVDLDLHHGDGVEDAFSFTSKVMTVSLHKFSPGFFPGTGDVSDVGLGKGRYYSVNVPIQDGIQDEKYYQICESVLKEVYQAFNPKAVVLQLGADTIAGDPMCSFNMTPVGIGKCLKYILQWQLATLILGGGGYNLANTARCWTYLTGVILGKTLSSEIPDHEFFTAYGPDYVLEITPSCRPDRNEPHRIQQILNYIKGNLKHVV
As to the kind of experiment: HDAC8 activity assay (fluorometric, Sigma CS1010, Boc-Lys(Ac)-AMC). It counts as biochemical. The following applies: read-out: HDAC-8 (IC50 in nM). Here is the method:
as §1

Experiment [3] concerns the target T2, HDAC8. Particulars: cited from earlier work; for Activity (experimental pIC50): Table S2, training and test set molecules, converted from literature IC50; for IC50 / pIC50: Table S1, external validation set.

`COc1cccc(-c2nc(CNc3ccccc3SCC(N)=O)cs2)c1` [SD-01, 2-((2-(((2-(3-methoxyphenyl)thiazol-4-yl)methyl)amino)phenyl)thio)acetamide]: the IC50 is more than 100 nM in experiment [1] and 9 nM in experiment [2].
With `COC(=O)c1ccc(Oc2coc3cc(OCC(N)=O)ccc3c2=O)cc1` [SD-03, methyl 4-((7-(2-amino-2-oxoethoxy)-4-oxo-4H-chromen-3-yl)oxy)benzoate], the half-maximal inhibitory concentration (IC50) in experiment [1] and in experiment [2] was more than 100 nM each time.
For `NC(=O)Cc1nc(-c2cc3cc(Cl)ccc3o2)cs1` [SD-04, 2-(4-(5-chlorobenzofuran-2-yl)thiazol-2-yl)acetamide], the IC50 in experiment [1] and in experiment [2] was more than 100 nM in each case.
With `CONC(=O)NCc1ccc2cc(OC)ccc2c1` [SD-05, 1-methoxy-3-((6-methoxynaphthalen-2-yl)methyl)urea], the 50% inhibitory concentration (IC50) in experiment [1] came to 30.9 nM; in experiment [2], 41.6 nM.
On to `Cc1ccc(Cc2cn(C)c3cc(C(=O)NO)ccc23)cc1` [compound 2], for which, in experiment [3], the “Activity (experimental pIC50)” value was 7.620.
As to `O=C(COc1ccccc1)Cc1nc(-c2ccc(C(=O)NO)s2)cs1` [compound 3], the “Activity (experimental pIC50)” value in experiment [3] is given as 7.420.
For the compound `O=C(Cc1ccc(-c2csc(NC(=O)c3cnc([C@H]4CCCNC4)s3)n2)s1)NO` [compound 4], the “Activity (experimental pIC50)” value in experiment [3] is recorded as 7.398.
For the compound `Cc1ccc(S(=O)(=O)NC(=O)Nc2cccc(/C=C/C(=O)NO)c2)cc1` [compound 5], in experiment [3], the “Activity (experimental pIC50)” value is recorded as 7.398.
For the compound `Cc1ccc(S(=O)(=O)NC(=O)NCc2ccc(C(=O)NO)cc2)cc1` [compound 6], the “Activity (experimental pIC50)” value in experiment [3] is 7.310.
Consider `O=C(NO)c1ccc(-c2cccc(CNCCc3ccccn3)c2)s1` [compound 7], for which the “Activity (experimental pIC50)” value in experiment [3] was 7.301.
With `O=C(Cc1ccc(-c2csc(NC(=O)c3ccn(CC4CCNCC4)c3-c3ccccc3)c2)s1)NO` [compound 9], the “Activity (experimental pIC50)” value in experiment [3] is 6.854.
Consider `O=C(Cc1cccc(NC(=O)NC(=O)c2ccccc2)c1)NO` [compound 10], for which, in experiment [3], the “IC50” value was 66000 nM, the pIC50 is 4.18 and the “Activity (experimental pIC50)” value is listed as 6.824.
Take `CC(=O)SCC(=O)CCCCCCC(=O)Nc1ccccc1` [compound 11]: in experiment [3], the concentration for half-maximal inhibition (IC50) is 700 nM and the pIC50 is 6.155.
As for `CN(C)Cc1c(C(=O)NCCOc2ccc(C(=O)NO)cc2)oc2ccccc12` [compound 12], in experiment [3], the “IC50” value was 19700 nM and the pIC50 is listed as 4.706.
For `O=C(/C=C/c1ccc(CN(CCc2cc3ccccc3[nH]2)C(=O)NC(=O)c2ccccc2)cc1)NO` [compound 13], in experiment [3], the concentration for half-maximal inhibition (IC50) was 15700 nM, the negative logarithm of the IC50 (pIC50) was 4.804 and the “Activity (experimental pIC50)” value is listed as 6.678.
With `O=C(/C=C/c1ccc(CN(CCN2CCCCC2)C(=O)NC(=O)c2ccccc2)cc1)NO` [compound 14], in experiment [3], the “IC50” value was 350 nM, the negative logarithm of the IC50 (pIC50) was 6.456 and the “Activity (experimental pIC50)” value is 6.638.
For the compound `O=C(/C=C/c1ccc2c(c1)nc(COCc1ccccc1)n2CCc1cccnc1)NO` [compound 15], in experiment [3], the concentration for half-maximal inhibition (IC50) is 180 nM and the pIC50 is on record as 6.745.
With `O=C(Cc1ccccc1)Nc1nc(-c2cc(C(=O)NO)no2)cs1` [compound 16], in experiment [3], the half-inhibitory concentration (IC50) was 100 nM, the pIC50 is reported as 7 and the “Activity (experimental pIC50)” value is on record as 6.469.
Regarding `O=C(/C=C/c1ccc2c(c1)nc(-c1ccccn1)n2C[C@H](O)CO)NO` [compound 17], in experiment [3], the “IC50” value was 1400 nM, the pIC50 is recorded as 5.854 and the “Activity (experimental pIC50)” value is given as 6.463.
For `O=C(Nc1cccc(-c2cc(C(=O)NO)n[nH]2)c1)c1ccccc1` [compound 18], in experiment [3], the “IC50” value was 150 nM, the pIC50 was 6.824 and the “Activity (experimental pIC50)” value was 6.456.
For `CN(C)CC(C)(C)Cn1c(CCc2ccccc2)nc2cc(/C=C/C(=O)NO)ccc21` [compound 19], in experiment [3], the concentration for half-maximal inhibition (IC50) is 120 nM and the pIC50 is 6.921.
In the case of `CC(/C=C/C(=O)NO)=C\C(C)Cc1ccc(N(C)C)cc1` (stereo not shown) [compound 20], in experiment [3], the “IC50” value was 220 nM, the pIC50 is given as 6.658 and the “Activity (experimental pIC50)” value is 6.398.
For the compound `O=C(/C=C/c1ccc2c(c1)ncn2Cc1ccccc1)NO` [compound 21], in experiment [3], the “IC50” value was 52 nM and the pIC50 was 7.284.
On to `O=C(NO)c1ccc(CN2CCN(C(=O)NC(=O)c3ccccc3)CC2)cc1` [compound 22], for which, in experiment [3], the concentration for half-maximal inhibition (IC50) is 29 nM, the pIC50 is given as 7.538 and the “Activity (experimental pIC50)” value is 6.337.
Consider `O=C(CCCCCNC(=O)NC(=O)c1ccccc1)NO` [compound 25], for which, in experiment [3], the “Activity (experimental pIC50)” value is 5.971.
For `O=C(NO)c1ccc(NC(=S)NN=C(c2ccccc2)c2ccccc2)cc1` [compound 30], the “Activity (experimental pIC50)” value in experiment [3] is 4.633.
For the compound `C[C@H](N)C(=O)NCc1nnc(-c2ccccc2)o1` [compound 31], in experiment [3], the “Activity (experimental pIC50)” value is 7.009.
